US4008220A, “Penicillins” (Sumitomo Chemical Company, Limited, priority 1972, dated 1977)
Values after ≈ are worked out from the molar mass of the structure shown.

How the values were obtained:
Assay in all cases: Minimal inhibitory concentration by agar dilution method
Type in all cases: cell-based
[1] = system: Proteus vulgaris HX19
[2] = system: Staphylococcus aureus 209P
[3] = system: Klebsiella pneumoniae 602
[4] = system: Escherichia coli NIHJ
[5] = system: Pseudomonas aeruginosa 104
[6] = system: Proteus mirabilis GN2425

Compound	MIC [1] [µg/mL]	MIC [2] [µg/mL]	MIC [3] [µg/mL]	MIC [4] [µg/mL]	MIC [5] [µg/mL]	MIC [6] [µg/mL]
CC1(C)S[C@@H]2[C@H](NC(=O)C(NC(=O)c3cncnc3O)c3ccsc3)C(=O)N2[C@H]1C(=O)O (stereo partly shown) [Example 17]	0.05 (≈ 0.105 µM)	0.39 (≈ 0.817 µM)	50 (≈ 105 µM)	25 (≈ 52.4 µM)	3.13 (≈ 6.55 µM)	6.25 (≈ 13.1 µM)
CCOC(=O)Oc1c(C(=O)NC(C(=O)N[C@@H]2C(=O)N3[C@@H]2SC(C)(C)[C@@H]3C(=O)O)c2ccccc2)cnc2c1CCCCC2 (stereo partly shown) [Example 21]	0.78 (≈ 1.28 µM)	0.78 (≈ 1.28 µM)	3.13 (≈ 5.13 µM)	25 (≈ 40.9 µM)	25 (≈ 40.9 µM)	6.25 (≈ 10.2 µM)
CC1(C)S[C@@H]2[C@H](NC(=O)[C@H](NC(=O)c3ccnnc3O)c3ccccc3)C(=O)N2[C@H]1C(=O)O [Example 8, D-α-(3-hydroxypyridazine-4-carboxamido)-benzylpenicillin]	–	–	–	–	–	6.25 (≈ 13.3 µM)
CC1(C)S[C@@H]2[C@H](NC(=O)C(NC(=O)c3cnccc3O)c3ccccc3)C(=O)N2[C@H]1C(=O)O (stereo partly shown) [Example 25]	0.2 (≈ 0.425 µM)	0.78 (≈ 1.66 µM)	25 (≈ 53.1 µM)	–	6.23 (≈ 13.2 µM)	12.5 (≈ 26.6 µM)
CSc1ncc(C(=O)NC(C(=O)N[C@@H]2C(=O)N3[C@@H]2SC(C)(C)[C@@H]3C(=O)O)c2ccccc2)c(O)n1 (stereo partly shown) [Example 27]	0.1 (≈ 0.193 µM)	0.78 (≈ 1.51 µM)	50 (≈ 96.6 µM)	50 (≈ 96.6 µM)	6.25 (≈ 12.1 µM)	12.5 (≈ 24.2 µM)
CCOC(=O)Oc1c(C(=O)N[C@@H](C(=O)N[C@@H]2C(=O)N3[C@@H]2SC(C)(C)[C@@H]3C(=O)O)c2ccccc2)cnc2c1CCCC2 [Example 6, D-α -(4-ethoxycarbonyloxy-2,3-cyclohexenopyridine-5-carboxamido)-benzylpenicillin]	0.39 (≈ 0.654 µM)	0.78 (≈ 1.31 µM)	6.25 (≈ 10.5 µM)	12.5 (≈ 20.9 µM)	12.5 (≈ 20.9 µM)	6.25 (≈ 10.5 µM)
CC1(C)S[C@@H]2[C@H](NC(=O)C(NC(=O)c3ccccn3)c3ccccc3)C(=O)N2[C@H]1C(=O)O (stereo partly shown) [I, reference compound]	–	–	–	–	–	50 (≈ 110 µM)
CC1(C)S[C@@H]2[C@H](NC(=O)[C@H](NC(=O)c3cnccc3O)c3ccc(O)cc3)C(=O)N2[C@H]1C(=O)O [Example 9, D-α-(4-hydroxypyridine-3-carboxamido)-p-hydroxybenzylpenicillin]	–	0.78 (≈ 1.6 µM)	100 (≈ 206 µM)	–	–	6.25 (≈ 12.8 µM)
CC1(C)S[C@@H]2[C@H](NC(=O)C(NC(=O)c3ccnnc3O)c3cccs3)C(=O)N2[C@H]1C(=O)O (stereo partly shown) [Example 18]	0.05 (≈ 0.105 µM)	0.39 (≈ 0.817 µM)	12.5 (≈ 26.2 µM)	12.5 (≈ 26.2 µM)	3.13 (≈ 6.55 µM)	6.25 (≈ 13.1 µM)
CC1(C)S[C@@H]2[C@H](NC(=O)C(NC(=O)c3ccnnc3O)C3=CCC=CC3)C(=O)N2[C@H]1C(=O)O (stereo partly shown) [Example 12]	0.05 (≈ 0.106 µM)	0.2 (≈ 0.422 µM)	3.13 (≈ 6.61 µM)	12.5 (≈ 26.4 µM)	3.13 (≈ 6.61 µM)	12.5 (≈ 26.4 µM)
CC(=O)c1c(C)ncc(C(=O)N[C@@H](C(=O)N[C@@H]2C(=O)N3[C@@H]2SC(C)(C)[C@@H]3C(=O)O)c2ccccc2)c1O [Example 4, D-α-(3-acetyl-4-hydroxy-2-methyl-pyridine-5-carboxamido)-benzylpenicillin]	0.39 (≈ 0.741 µM)	0.78 (≈ 1.48 µM)	12.5 (≈ 23.7 µM)	12.5 (≈ 23.7 µM)	12.5 (≈ 23.7 µM)	6.25 (≈ 11.9 µM)
CC1(C)S[C@@H]2[C@H](NC(=O)[C@H](NC(=O)c3cccnc3O)c3ccc(O)cc3)C(=O)N2[C@H]1C(=O)O [Example 10, D-α-(2-hydroxypyridine-3-carboxamido)-p-hydroxybenzylpenicillin]	0.2 (≈ 0.411 µM)	1.56 (≈ 3.21 µM)	100 (≈ 206 µM)	12.5 (≈ 25.7 µM)	6.25 (≈ 12.8 µM)	12.5 (≈ 25.7 µM)
CC1(C)S[C@@H]2[C@H](NC(=O)[C@H](NC(=O)c3cnc4c(c3O)CCC4)c3ccccc3)C(=O)N2[C@H]1C(=O)O [Example 2, D-α-(4-hydroxy-2,3-cyclopentenopyridine-5-carboxamido)-benzylpenicillin]	0.39 (≈ 0.764 µM)	0.39 (≈ 0.764 µM)	12.5 (≈ 24.5 µM)	25 (≈ 49 µM)	12.5 (≈ 24.5 µM)	12.5 (≈ 24.5 µM)
